Source: PubChem BioAssay (NCI)
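All cell lines were grown in 96-well plates and treated with compound for 48 hours. TGI: total growth inhibition.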

Assays:
Assay in all cases: NCI-60 cell line screen, 48 h
OVCAR-5 ovarian = test system: OVCAR-5 ovarian
MCF7 breast = test system: MCF7 breast
NCI-H23 lung = test system: NCI-H23 lung
MDA-MB-231 breast = test system: MDA-MB-231 breast
SW-620 colon = test system: SW-620 colon
COLO 205 colon = test system: COLO 205 colon
SN12C renal = test system: SN12C renal
HOP-92 NSCLC = test system: HOP-92 NSCLC
OVCAR-8 ovarian = test system: OVCAR-8 ovarian
EKVX NSCLC = test system: EKVX NSCLC
CAKI-1 renal = test system: CAKI-1 renal
SK-MEL-5 melanoma = test system: SK-MEL-5 melanoma
SK-MEL-28 melanoma = test system: SK-MEL-28 melanoma
HCT-116 colon = test system: HCT-116 colon
SF-539 CNS = test system: SF-539 CNS
NCI/ADR-RES ovarian = test system: NCI/ADR-RES ovarian
SF-295 CNS = test system: SF-295 CNS
OVCAR-3 ovarian = test system: OVCAR-3 ovarian
HT29 colon = test system: HT29 colon
MDA-N = test system: MDA-N
IGROV1 ovarian = test system: IGROV1 ovarian
786-0 renal = test system: 786-0 renal
U251 CNS = test system: U251 CNS
SNB-75 CNS = test system: SNB-75 CNS
ACHN renal = test system: ACHN renal
NCI-H226 lung = test system: NCI-H226 lung
SK-MEL-2 melanoma = test system: SK-MEL-2 melanoma
CCRF-CEM leukemia = test system: CCRF-CEM leukemia
NCI-H522 lung = test system: NCI-H522 lung
T-47D breast = test system: T-47D breast
A549 NSCLC = test system: A549 NSCLC
NCI-H460 lung = test system: NCI-H460 lung
MALME-3M melanoma = test system: MALME-3M melanoma
DU-145 prostate = test system: DU-145 prostate
SF-268 CNS = test system: SF-268 CNS
SK-OV-3 ovarian = test system: SK-OV-3 ovarian
UACC-257 melanoma = test system: UACC-257 melanoma
M14 melanoma = test system: M14 melanoma
HCC-2998 colon = test system: HCC-2998 colon
OVCAR-4 ovarian = test system: OVCAR-4 ovarian
A498 renal = test system: A498 renal
UACC-62 melanoma = test system: UACC-62 melanoma
HCT-15 colon = test system: HCT-15 colon
SNB-19 CNS = test system: SNB-19 CNS
PC-3 prostate = test system: PC-3 prostate
HS 578T breast = test system: HS 578T breast
MOLT-4 leukemia = test system: MOLT-4 leukemia
BT-549 breast = test system: BT-549 breast
KM12 colon = test system: KM12 colon
LOX IMVI melanoma = test system: LOX IMVI melanoma
UO-31 renal = test system: UO-31 renal
TK-10 renal = test system: TK-10 renal
HL-60(TB) leukemia = test system: HL-60(TB) leukemia
MDA-MB-435 = test system: MDA-MB-435
RPMI-8226 leukemia = test system: RPMI-8226 leukemia
RXF 393 renal = test system: RXF 393 renal
K-562 leukemia = test system: K-562 leukemia
SR leukemia = test system: SR leukemia
HOP-62 NSCLC = test system: HOP-62 NSCLC

Measured: TGI

C=C1[C@@H]([C@@]2(C)C=CC(=O)C(C)(C)[C@@H]2CC(=O)OC)CC[C@@]2(C)C(c3ccoc3)OC(=O)[C@H]3O[C@]132 (some centres undefined)
not listed: RPMI-8226 leukemia | RXF 393 renal | K-562 leukemia | SR leukemia | HOP-62 NSCLC
> 100 µM: all other assays above

c1ccc2cc3c(cc2c1)nc1ccccn13
not listed: MDA-MB-231 breast | CAKI-1 renal | HT29 colon | SK-MEL-2 melanoma | NCI-H522 lung | NCI-H460 lung | OVCAR-4 ovarian | A498 renal | LOX IMVI melanoma
> 100 µM: all other assays above
